Experimental data as given in patent US20230074545A1, “TREATMENT OF CANCER WITH CDK12/13 INHIBITORS” (Kinnate Biopharma Inc., priority 2019, published 2023).
Read-outs that look alike come from different tables or passages of the source.

Legend:
[1] = tested on: RNA polymerase II; experiment: Ex vivo RNA polymerase II phosphorylation (pS2/S2) in human PBMCs; format: cell-based; conditions: PBMC, hPBMCs, 2 hours
Method: (§1) The ability of the compounds to inhibit phosphorylation of peripheral blood mononuclear cells (PBMCs) was analyzed ex vivo. Compounds 1 and 4 were dosed at concentrations between 4 μM to 126.4 pM (0.5 log serial dilutions) for 2 hours. The amount of phosphorylated RNA polymerase II and the total amount of RNA polymerase II was analyzed. The values were normalized by taking the ratio of the phosphorylated RNA polymerase II to the total RNA polymerase II (pS2/S2).

[2] = tested on: HCC70 cells; experiment: HCC70 cell proliferation (CellTiter-Glo); format: cell-based; conditions: Homo sapiens, read-out: Inhibition of Proliferation of HCC70 Cells (IC50 in M)
Method: HCC70 was the cell line used as a model of triple-negative breast cancer (TNBC). This cell line was obtained from ATCC and was initiated from a primary ductal carcinoma in 1992 (Catalog #CRL-2315; mammary gland primary ductal carcinoma). The HCC-70 tumor cell line was maintained in vitro as a monolayer culture in RPMI-1640 medium supplemented with 10% heat inactivated fetal bovine serum at 37° C. in an atmosphere of 5% CO2 in air.
(§2) Representative compounds were tested at different concentrations (from 4 μM to 126.4 pM; 0.5 log serial dilutions) for their ability to inhibit the proliferation of HCC70 cells. Cells were grown in ATCC-formulated RPMI-1640 Medium (ATCC 30-2001)+10% FBS. The cells were cultured at 37° C. in a humidified chamber in the presence of 5% CO2. Proliferation assays were conducted over a 72 hour time period.
(§3) Cells were cultured and maintained as described above, with cells always fed on the day prior to assay. Assays were run with a 2 hour compound exposure followed by a washout and then a 72 hour proliferation time or exposed to the test compounds for 72 hours with no washout of compound. DMSO was used as a control in all wells not receiving test compound and DMSO wells were used for plate normalization. Proliferation and survival of cells was quantified based on the amount of total ATP following cell lysis as determined by using a standard assay kit used according to manufacturer's instructions. Experiments were performed in the same media used by each cell type for growth and maintenance. Cells (5×10^4) were plated in 96 well plates for compound exposure. CellTiter-Glo® (Promega Corporation, Madison, Wis. USA) was used to assess the anti-proliferative effects of the compounds following manufacturer's directions and utilizing the reagents supplied with the CellTiter-Glo® kit.

[3] = tested on: RNA polymerase II; experiment: Ex vivo RNA polymerase II phosphorylation (pS2/S2) in cynomolgus PBMCs; format: cell-based; conditions: Macaca fascicularis, PBMC; moPBMCs, 2 hours
Method: as §1

[4] = target: T1, CDK9 (Homo sapiens, UniProt P50750); experiment: Radiometric kinase assay (33PanQinase); format: biochemical; conditions: read-out: Inhibition of CDK Activity (molar inhibition in a radiometric assay)
T1 construct: either as full-length or enzymatically active fragments; purchased ProQinase GmbH (Reaction Biology); host or cells: Sf9 insect cells or E. coli
T1 sequence (P50750 whole entry, the tested form may be a part): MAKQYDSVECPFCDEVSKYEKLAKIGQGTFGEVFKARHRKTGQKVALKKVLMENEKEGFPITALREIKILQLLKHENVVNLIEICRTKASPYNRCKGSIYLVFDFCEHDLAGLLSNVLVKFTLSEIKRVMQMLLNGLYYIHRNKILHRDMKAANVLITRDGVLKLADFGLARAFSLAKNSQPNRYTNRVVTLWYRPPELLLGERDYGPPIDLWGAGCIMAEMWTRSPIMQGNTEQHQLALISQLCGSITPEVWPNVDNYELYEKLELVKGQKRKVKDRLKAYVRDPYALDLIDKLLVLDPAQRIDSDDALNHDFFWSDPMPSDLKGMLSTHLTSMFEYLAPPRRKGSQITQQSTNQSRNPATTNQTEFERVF
T1 sequence (O60563 whole entry partner, the tested form may be a part): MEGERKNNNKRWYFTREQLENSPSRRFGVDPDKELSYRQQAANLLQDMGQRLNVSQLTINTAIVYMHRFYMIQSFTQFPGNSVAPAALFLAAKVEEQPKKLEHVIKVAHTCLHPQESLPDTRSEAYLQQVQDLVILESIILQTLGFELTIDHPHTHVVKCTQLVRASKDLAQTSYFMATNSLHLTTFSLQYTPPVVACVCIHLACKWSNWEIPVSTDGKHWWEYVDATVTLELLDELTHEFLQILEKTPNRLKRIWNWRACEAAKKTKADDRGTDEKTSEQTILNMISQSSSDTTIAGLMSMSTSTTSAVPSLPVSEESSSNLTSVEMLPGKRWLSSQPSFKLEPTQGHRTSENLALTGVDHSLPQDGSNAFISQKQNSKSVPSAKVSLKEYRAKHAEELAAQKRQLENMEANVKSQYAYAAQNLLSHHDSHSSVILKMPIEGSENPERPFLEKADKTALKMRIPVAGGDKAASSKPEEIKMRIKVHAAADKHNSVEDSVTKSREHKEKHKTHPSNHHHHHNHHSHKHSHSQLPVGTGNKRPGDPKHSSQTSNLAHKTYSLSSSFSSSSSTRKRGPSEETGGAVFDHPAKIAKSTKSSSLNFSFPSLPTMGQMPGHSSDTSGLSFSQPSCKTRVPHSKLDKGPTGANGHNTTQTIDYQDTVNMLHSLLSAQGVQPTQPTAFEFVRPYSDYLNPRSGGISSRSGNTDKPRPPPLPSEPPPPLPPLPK
Method: (§4) The compounds 1-5 (see Table 1) were assayed for kinase activity at ProQinase (ProQinase GmbH, Reaction Biology; Freiburg, Germany) using their commercially available radiometric kinase assay services. Briefly, the compounds were provided as solids and were dissolved to 1×10^−03 M/100% DMSO stock solutions on the day of assay. All protein kinases were provided by ProQinase and were expressed in Sf9 insect cells or in E. coli as recombinant GST-fusion proteins or His-tagged proteins, either as full-length or enzymatically active fragments. All kinases were produced from human cDNAs and purified by either GSH-affinity chromatography or immobilized metal. The purity of the protein kinases was examined by SDS-PAGE/Coomassie staining, the identity was checked by mass spectroscopy. A radiometric protein kinase assay (^33PanQinase® Activity Assay) was used for measuring the kinase activity of the protein kinase. All kinase assays were performed in 96-well FlashPlates™ from PerkinElmer (Boston, Mass., USA) in a 50 microliter reaction volume. The reaction cocktail was pipetted in four steps in the following order: 1) 25 microliter of assay buffer (standard buffer/[gamma-^33P]-ATP); 2) 10 microliter of ATP solution (in H2O); 3) 5 microliter of test compound (in 10% DMSO); 4) 10 microliter of enzyme/substrate mixture.
(§5) As a parameter for assay quality, the Z′-factor (Zhang et al., J. Biomol. Screen. 2: 67-73, 1999) for the low and high controls of each assay plate (n=8) was used. ProQinase's criterion for repetition of an assay plate is a Z′-factor below 0.4.

[5] = target: T2, CDK13 (Homo sapiens, UniProt Q14004); experiment: Radiometric kinase assay (33PanQinase); format: biochemical; conditions: read-out: Inhibition of CDK Activity (molar inhibition in a radiometric assay)
T2 construct: either as full-length or enzymatically active fragments; purchased ProQinase GmbH (Reaction Biology)
T2 sequence (Q14004 whole entry, the tested form may be a part): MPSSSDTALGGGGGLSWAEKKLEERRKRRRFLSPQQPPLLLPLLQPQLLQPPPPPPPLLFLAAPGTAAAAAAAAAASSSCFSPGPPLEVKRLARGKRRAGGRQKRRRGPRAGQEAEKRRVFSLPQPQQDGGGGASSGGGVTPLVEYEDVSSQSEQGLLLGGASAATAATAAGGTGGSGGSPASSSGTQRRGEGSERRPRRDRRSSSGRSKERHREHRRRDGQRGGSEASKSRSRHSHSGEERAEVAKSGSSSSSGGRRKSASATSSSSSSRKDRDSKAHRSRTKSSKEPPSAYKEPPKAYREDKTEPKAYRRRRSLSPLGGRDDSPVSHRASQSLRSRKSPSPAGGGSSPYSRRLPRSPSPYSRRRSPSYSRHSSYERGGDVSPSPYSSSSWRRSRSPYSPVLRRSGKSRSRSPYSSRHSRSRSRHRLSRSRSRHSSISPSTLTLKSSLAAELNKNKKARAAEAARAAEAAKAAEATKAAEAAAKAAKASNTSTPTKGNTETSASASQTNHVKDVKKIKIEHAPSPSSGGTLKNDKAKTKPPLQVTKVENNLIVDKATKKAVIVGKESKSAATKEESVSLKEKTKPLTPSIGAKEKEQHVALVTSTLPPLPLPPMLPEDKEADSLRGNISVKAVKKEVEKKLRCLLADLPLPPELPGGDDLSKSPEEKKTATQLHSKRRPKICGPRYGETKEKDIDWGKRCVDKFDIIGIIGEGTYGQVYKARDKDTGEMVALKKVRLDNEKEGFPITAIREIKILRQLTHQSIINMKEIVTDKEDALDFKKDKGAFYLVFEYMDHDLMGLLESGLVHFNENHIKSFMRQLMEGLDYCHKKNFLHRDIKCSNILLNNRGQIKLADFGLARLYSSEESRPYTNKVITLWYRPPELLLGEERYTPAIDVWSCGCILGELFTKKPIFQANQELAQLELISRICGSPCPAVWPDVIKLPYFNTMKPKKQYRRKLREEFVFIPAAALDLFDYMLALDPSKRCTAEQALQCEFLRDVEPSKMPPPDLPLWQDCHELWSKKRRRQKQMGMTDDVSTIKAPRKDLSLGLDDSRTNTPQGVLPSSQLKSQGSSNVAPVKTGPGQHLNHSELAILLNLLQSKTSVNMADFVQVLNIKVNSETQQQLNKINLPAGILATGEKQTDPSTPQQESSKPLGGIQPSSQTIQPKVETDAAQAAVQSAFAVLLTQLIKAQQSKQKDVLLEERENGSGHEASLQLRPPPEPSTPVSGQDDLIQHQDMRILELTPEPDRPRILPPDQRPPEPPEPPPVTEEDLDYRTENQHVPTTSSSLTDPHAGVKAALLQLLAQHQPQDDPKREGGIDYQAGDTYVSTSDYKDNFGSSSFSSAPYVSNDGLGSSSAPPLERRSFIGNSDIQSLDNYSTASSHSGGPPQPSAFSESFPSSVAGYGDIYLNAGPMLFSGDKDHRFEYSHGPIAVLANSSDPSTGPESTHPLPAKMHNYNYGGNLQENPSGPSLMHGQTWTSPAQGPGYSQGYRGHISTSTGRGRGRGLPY
T2 sequence (O75909 whole entry partner, the tested form may be a part): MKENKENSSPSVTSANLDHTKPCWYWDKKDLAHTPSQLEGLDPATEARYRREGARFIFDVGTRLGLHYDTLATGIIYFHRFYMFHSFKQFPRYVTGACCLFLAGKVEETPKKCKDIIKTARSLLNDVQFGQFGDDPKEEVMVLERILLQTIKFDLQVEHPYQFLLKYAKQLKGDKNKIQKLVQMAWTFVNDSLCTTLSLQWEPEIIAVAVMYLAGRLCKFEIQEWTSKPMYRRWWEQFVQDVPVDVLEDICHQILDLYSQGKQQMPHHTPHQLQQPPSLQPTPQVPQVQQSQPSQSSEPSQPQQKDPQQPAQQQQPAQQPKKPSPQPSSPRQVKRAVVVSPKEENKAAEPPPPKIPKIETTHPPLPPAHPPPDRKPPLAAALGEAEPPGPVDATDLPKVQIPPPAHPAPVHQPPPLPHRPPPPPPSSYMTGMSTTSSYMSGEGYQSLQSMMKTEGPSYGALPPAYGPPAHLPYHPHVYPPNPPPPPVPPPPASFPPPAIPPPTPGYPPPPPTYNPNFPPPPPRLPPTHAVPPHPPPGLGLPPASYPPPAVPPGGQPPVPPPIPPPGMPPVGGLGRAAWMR
Method: as §4, §5

[6] = target: T3, CDK12 (Homo sapiens, UniProt Q9NYV4); experiment: Radiometric kinase assay (33PanQinase); format: biochemical; conditions: read-out: Inhibition of CDK Activity (molar inhibition in a radiometric assay)
T3 construct: either as full-length or enzymatically active fragments; purchased ProQinase GmbH (Reaction Biology)
T3 sequence (Q9NYV4 whole entry, the tested form may be a part): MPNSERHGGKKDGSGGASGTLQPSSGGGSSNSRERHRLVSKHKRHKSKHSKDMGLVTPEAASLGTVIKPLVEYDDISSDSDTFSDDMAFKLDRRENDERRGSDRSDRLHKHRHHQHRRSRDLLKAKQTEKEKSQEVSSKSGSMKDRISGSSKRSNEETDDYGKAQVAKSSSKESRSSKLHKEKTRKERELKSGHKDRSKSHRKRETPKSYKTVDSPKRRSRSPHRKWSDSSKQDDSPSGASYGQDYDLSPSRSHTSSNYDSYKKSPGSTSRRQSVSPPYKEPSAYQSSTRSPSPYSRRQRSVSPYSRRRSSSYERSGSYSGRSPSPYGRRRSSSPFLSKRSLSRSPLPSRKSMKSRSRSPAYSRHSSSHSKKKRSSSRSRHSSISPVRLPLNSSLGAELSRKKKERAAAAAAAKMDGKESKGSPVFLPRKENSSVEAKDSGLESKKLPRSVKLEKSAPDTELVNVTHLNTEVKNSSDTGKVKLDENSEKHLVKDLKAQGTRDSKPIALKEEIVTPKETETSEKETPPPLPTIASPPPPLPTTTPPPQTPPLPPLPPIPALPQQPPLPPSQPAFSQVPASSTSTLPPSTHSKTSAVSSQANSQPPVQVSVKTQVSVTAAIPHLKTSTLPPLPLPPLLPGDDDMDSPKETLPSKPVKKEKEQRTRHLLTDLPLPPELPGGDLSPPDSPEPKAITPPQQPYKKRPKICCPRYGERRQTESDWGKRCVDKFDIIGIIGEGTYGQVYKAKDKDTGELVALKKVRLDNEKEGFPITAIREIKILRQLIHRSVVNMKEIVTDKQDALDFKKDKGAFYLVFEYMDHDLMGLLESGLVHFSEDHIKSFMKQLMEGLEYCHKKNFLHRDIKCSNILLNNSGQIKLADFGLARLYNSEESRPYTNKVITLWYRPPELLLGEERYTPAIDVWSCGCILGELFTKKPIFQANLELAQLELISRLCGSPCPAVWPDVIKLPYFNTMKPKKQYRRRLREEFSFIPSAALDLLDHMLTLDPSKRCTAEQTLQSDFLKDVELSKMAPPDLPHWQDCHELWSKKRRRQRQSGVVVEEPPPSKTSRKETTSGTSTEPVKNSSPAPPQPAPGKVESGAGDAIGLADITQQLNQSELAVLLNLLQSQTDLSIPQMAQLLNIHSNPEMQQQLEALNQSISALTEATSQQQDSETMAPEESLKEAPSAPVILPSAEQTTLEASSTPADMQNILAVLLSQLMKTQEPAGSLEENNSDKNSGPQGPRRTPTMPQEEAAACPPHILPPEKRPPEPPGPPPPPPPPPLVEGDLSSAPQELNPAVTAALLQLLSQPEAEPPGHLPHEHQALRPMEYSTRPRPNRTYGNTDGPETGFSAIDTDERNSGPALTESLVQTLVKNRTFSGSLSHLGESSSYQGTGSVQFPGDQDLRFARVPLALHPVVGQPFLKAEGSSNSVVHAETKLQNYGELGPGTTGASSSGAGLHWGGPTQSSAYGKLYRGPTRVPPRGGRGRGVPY
T3 sequence (O75909 whole entry partner, the tested form may be a part): as the sequence (O75909 whole entry partner, the tested form may be a part) above
Method: as §4, §5

[7] = target: T4, CDK2 (Homo sapiens, UniProt P24941); experiment: Radiometric kinase assay (33PanQinase); format: biochemical; conditions: read-out: Inhibition of CDK Activity (molar inhibition in a radiometric assay)
T4 construct: either as full-length or enzymatically active fragments; purchased ProQinase GmbH (Reaction Biology); host or cells: Sf9 insect cells or E. coli
Method: as §4, §5

[8] = target: T5, CDK7 (Homo sapiens, UniProt P50613); experiment: Radiometric kinase assay (33PanQinase); format: biochemical; conditions: read-out: Inhibition of CDK Activity (molar inhibition in a radiometric assay)
T5 construct: either as full-length or enzymatically active fragments; purchased ProQinase GmbH (Reaction Biology); host or cells: Sf9 insect cells or E. coli
Method: as §4, §5

[9] = tested on: OVCAR-3 cells; experiment: OVCAR-3 cell proliferation (CellTiter-Glo); format: cell-based; conditions: Homo sapiens, read-out: Inhibition of proliferation of OVCAR3 cells (IC50 in M)
Excerpt: OVCAR-3 was used as the cell line to model for ovarian cancer in vitro and in vivo. This cell line was obtained from ATCC (Catalog #HTB-161) and is an adenocarcinoma line from the malignant ascites of a patient with progressive adenocarcinoma of the ovary and embodies a preclinical model of high-grade, serous ovarian cancer (HGSOC). OVCAR-3 has been deemed an appropriate model system in which to study drug resistance in ovarian cancer, and the presence of hormone receptors should be useful for the evaluation of hormonal therapy. OVCAR-3 is resistant to clinically relevant concentrations of adriamycin, melphalan and cisplatin.
as §2, with “Compounds 1-5” for “Representative compounds”, “OVCAR-3” for “HCC70”
as §3

[10] = HCC70 (no washout), exposed for 72 hours
[11] = HCC70 (w/washout), 2 hour exposure, washout, 72 hour proliferation
[12] = OVCAR-3 (no washout), exposed for 72 hours
[13] = OVCAR-3 (w/washout), 2 hour exposure, washout, 72 hour proliferation

Row | SMILES | IC50 [1] | IC50 [2, 10] | IC50 [2, 11] | IC50 [3] | IC50 [4] | IC50 [5] | IC50 [6] | IC50 [7] | IC50 [8] | IC50 [9, 12] | IC50 [9, 13]
1 | C=CC(=O)Nc1ccc(C(=O)N2CC[C@@H](Nc3ncc(Cl)c(OC)n3)C2)cc1 [Compound 1, (R)-N-(4-(3-((5-chloro-4-methoxypyrimidin-2-yl)amino)pyrrolidine-1-carbonyl)phenyl)acrylamide] | 19.3 nM | 5.1 nM | 14.1 nM | 21.6 nM | 288 nM | 25.8 nM | 21.3 nM | 1150 nM | 1100 nM | 4.45 nM | 82.4 nM
2 | C=CC(=O)Nc1ccc(C(=O)N2CC[C@@H](Nc3ncc(C#N)cn3)C2)cc1 [Compound 4, (R)-N-(4-(3-((5-cyanopyrimidin-2-yl)amino)pyrrolidine-1-carbonyl)phenyl)acrylamide] | 167 nM | 32.3 nM | 134 nM | 181 nM | 3970 nM | 293 nM | 131 nM | 7550 nM | 6960 nM | 31 nM | 179 nM
